Measured values as given in ChEMBL document CHEMBL1201862, “PubChem BioAssay data set” (2004).
The source made the active and inactive calls.

How the values were obtained:
[1] = Counterscreen for IDE inhibitors: Luminescence-based cell-based high throughput dose response assay to identify compounds that are cytotoxic to HEK cells. [Related pubchem assays: 434962 (Primary screen (IDE inhibitors in singlicate)), 449730 (Counterscreen (Cytotoxicity in triplicate)), 435028 (Confirmation (IDE inhibitors in triplicate)) …; assay type: functional; conditions: HEK293
[2] = target: T1, RNA-binding protein pos-1 (Caenorhabditis elegans, UniProt G5EF15); assay: inhibitors of POS-1/mex-3 RNA binding, dose response, biochemical, fluorescence polarization (AID 1964);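 note: purified POS-1 fused to maltose binding protein made in E. coli; potency of compounds blocking POS-1 binding to fluorescent RNA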
T1 sequence (G5EF15 whole entry): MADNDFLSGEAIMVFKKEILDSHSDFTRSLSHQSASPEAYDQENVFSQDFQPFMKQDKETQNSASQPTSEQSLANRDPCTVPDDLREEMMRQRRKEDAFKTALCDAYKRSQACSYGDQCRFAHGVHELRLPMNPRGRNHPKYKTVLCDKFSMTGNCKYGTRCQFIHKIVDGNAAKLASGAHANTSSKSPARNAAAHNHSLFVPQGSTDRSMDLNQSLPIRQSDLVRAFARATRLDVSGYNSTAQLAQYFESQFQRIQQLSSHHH

Insulin-degrading enzyme = target: T2, Insulin-degrading enzyme (Homo sapiens, UniProt P14735); assay: Dose Response: Fluorescence polarization-based cell-based high throughput dose response assay for inhibitors of insulin-degrading enzyme (IDE). [Related pubchem assays: 434962 (Primary screen (IDE inhibitors in singlicate)), 449730 (Counterscreen (Cytotoxicity in triplicate)), 435028 (Confirmation (IDE inhibitors in triplicate)), 434984 (Summary …; assay type: functional
T2 sequence (P14735 whole entry): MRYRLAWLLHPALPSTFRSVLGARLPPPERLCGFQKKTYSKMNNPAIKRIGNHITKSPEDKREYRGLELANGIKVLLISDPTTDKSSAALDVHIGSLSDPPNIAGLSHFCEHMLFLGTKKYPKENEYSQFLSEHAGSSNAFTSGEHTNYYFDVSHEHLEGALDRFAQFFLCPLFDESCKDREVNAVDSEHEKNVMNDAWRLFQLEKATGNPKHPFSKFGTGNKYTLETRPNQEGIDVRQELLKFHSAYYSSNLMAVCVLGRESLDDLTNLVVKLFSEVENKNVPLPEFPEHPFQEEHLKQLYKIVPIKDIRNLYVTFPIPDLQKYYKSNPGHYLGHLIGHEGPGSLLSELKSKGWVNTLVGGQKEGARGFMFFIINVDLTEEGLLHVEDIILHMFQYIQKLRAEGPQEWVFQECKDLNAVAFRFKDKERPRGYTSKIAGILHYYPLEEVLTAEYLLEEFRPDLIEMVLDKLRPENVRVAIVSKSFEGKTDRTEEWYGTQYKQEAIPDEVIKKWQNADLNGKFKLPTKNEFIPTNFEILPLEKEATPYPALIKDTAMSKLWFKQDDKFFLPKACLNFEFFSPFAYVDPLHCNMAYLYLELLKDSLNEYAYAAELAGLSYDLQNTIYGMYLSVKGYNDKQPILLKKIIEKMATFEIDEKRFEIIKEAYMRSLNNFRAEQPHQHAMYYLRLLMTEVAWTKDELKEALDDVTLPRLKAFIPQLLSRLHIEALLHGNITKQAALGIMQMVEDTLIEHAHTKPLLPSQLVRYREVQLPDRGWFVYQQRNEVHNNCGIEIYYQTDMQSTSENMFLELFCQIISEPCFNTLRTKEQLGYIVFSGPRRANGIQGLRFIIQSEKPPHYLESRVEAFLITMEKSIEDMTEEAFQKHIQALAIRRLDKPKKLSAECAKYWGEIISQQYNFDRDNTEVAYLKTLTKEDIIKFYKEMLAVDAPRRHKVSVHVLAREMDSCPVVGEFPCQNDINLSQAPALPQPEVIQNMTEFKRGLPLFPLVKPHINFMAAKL

[3] = target: 26S proteasome non-ATPase regulatory subunit 14 (Homo sapiens, UniProt O00487); assay: inhibition of proteasome subunit RPN11 – biochemical, fluorescence polarization, uHTS hits, confirmation (AID 602368); assay type: functional
Chain of 26S proteasome non-ATPase regulatory subunit 14 (O00487 whole entry): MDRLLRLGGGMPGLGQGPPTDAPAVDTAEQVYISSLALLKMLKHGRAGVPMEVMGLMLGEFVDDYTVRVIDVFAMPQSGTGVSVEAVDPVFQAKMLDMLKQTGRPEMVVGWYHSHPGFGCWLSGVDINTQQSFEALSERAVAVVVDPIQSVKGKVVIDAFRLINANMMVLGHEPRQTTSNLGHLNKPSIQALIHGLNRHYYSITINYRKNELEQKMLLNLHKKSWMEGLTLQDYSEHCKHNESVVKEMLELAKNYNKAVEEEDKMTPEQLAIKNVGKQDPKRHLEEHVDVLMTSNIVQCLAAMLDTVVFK

Vero = Vero cell cytotoxicity, cytotoxicity control for flavivirus capping enzyme inhibitors (AID 588742); assay type: functional; conditions: Chlorocebus sabaeus
[4] = target: T3, Methionyl-tRNA synthetase, putative (Trypanosoma brucei brucei, UniProt Q38C91); assay type: functional, Trypanosoma brucei brucei strain 927/4 GUTat10.1
T3 sequence (Q38C91 whole entry): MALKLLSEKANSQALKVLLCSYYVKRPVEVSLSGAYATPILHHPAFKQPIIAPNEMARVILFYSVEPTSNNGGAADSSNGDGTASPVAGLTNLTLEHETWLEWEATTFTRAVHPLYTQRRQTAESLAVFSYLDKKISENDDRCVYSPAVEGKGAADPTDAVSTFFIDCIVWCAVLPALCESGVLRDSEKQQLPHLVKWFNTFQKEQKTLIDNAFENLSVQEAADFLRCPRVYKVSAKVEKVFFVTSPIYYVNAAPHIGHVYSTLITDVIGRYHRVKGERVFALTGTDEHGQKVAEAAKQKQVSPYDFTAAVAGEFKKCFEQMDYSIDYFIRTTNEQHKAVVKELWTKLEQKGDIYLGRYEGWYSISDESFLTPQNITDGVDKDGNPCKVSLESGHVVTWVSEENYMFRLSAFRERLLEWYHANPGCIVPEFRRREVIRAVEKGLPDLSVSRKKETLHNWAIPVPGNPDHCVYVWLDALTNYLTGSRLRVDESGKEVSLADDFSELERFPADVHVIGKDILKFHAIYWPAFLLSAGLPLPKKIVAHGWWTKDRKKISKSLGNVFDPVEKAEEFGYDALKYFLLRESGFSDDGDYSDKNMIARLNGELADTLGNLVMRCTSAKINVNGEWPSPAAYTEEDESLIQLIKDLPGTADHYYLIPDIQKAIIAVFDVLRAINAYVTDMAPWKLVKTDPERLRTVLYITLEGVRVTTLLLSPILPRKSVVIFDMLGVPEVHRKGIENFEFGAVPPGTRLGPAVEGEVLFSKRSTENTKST

Prothrombin = Prothrombin (Bos taurus, UniProt P00735); assay: thrombin inhibition, dose response, biochemical, fluorescence polarization, uHTS hits (AID 602369); assay type: functional
Genome polyprotein = Genome polyprotein (dengue virus type 2, UniProt P29990); assay: Dengue-2 NS5 methyltransferase inhibitors, primary screen, biochemical, confirmation dose response (AID 588689); assay type: functional
Chain of Genome polyprotein (P29990 2492-3391 limits assumed): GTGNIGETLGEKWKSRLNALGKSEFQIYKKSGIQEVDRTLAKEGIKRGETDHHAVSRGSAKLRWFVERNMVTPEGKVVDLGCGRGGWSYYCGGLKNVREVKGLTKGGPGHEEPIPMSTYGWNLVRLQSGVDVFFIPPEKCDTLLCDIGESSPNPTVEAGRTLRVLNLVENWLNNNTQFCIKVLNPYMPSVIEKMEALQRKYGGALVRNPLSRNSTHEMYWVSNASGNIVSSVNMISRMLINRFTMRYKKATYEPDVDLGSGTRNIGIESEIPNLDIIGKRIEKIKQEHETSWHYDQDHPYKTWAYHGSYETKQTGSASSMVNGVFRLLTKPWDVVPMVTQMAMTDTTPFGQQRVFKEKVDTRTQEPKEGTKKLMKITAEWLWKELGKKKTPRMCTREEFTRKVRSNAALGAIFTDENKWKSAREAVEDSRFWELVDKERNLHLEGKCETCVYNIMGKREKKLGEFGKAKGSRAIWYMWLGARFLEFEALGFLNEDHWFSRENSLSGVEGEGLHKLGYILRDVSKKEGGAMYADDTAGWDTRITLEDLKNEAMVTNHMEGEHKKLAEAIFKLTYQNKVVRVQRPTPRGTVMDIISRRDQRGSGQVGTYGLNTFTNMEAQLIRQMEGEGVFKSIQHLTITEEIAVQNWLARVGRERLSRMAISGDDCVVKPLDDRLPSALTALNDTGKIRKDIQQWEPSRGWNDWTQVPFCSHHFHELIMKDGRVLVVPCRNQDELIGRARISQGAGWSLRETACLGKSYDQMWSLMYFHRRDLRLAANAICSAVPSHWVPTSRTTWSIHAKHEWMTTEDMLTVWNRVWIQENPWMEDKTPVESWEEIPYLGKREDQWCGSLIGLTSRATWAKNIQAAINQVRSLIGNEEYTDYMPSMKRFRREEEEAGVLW

[5] = HIV-1 Env-mediated cell fusion inhibitors, dose response, CCR5-tropic Env (AID 2279); assay type: functional
Phospholipase A2 = Phospholipase A2 (Homo sapiens, UniProt P04054); assay type: functional;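 note: confirmatory dose-response counterscreen on phospholipase A2, testing hits that came from an ultra-high-throughput screen for ATG4B inhibitors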
Chain of Phospholipase A2 (P04054 whole entry): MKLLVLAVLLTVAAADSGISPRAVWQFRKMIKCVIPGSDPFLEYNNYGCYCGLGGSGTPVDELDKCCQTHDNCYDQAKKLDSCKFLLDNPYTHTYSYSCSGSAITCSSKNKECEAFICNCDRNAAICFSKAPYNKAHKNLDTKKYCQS

Bcl-2-like protein 1 = Bcl-2-like protein 1 (Homo sapiens, UniProt Q07817); assay: BCL-XL inhibitors, dose response, selectivity assay for MCL1 inhibitor project, biochemical, fluorescence polarization, 1536-well (AID 2218)
Chain of Bcl-2-like protein 1 (Q07817 whole entry): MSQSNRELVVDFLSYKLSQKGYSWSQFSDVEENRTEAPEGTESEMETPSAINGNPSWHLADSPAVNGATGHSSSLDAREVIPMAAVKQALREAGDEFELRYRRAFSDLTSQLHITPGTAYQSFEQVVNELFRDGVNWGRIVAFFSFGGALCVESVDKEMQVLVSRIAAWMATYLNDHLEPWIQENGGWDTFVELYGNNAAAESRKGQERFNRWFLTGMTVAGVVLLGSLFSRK

[6] = target: T3, Methionyl-tRNA synthetase, putative; assay type: functional, Trypanosoma brucei brucei strain 927/4 GUTat10.1; remark: listed apart in the source
Aminopeptidase N = target: T4, Aminopeptidase N (Plasmodium falciparum FcB1/Columbia, UniProt O96935); assay: P. falciparum M1AAP inhibitors, biochemical, fluorogenic H-Leu-NHMec substrate, 1536-well (AID 1445); design: species or system Plasmodium falciparum 3D7, 3D7
T4 sequence (O96935 whole entry): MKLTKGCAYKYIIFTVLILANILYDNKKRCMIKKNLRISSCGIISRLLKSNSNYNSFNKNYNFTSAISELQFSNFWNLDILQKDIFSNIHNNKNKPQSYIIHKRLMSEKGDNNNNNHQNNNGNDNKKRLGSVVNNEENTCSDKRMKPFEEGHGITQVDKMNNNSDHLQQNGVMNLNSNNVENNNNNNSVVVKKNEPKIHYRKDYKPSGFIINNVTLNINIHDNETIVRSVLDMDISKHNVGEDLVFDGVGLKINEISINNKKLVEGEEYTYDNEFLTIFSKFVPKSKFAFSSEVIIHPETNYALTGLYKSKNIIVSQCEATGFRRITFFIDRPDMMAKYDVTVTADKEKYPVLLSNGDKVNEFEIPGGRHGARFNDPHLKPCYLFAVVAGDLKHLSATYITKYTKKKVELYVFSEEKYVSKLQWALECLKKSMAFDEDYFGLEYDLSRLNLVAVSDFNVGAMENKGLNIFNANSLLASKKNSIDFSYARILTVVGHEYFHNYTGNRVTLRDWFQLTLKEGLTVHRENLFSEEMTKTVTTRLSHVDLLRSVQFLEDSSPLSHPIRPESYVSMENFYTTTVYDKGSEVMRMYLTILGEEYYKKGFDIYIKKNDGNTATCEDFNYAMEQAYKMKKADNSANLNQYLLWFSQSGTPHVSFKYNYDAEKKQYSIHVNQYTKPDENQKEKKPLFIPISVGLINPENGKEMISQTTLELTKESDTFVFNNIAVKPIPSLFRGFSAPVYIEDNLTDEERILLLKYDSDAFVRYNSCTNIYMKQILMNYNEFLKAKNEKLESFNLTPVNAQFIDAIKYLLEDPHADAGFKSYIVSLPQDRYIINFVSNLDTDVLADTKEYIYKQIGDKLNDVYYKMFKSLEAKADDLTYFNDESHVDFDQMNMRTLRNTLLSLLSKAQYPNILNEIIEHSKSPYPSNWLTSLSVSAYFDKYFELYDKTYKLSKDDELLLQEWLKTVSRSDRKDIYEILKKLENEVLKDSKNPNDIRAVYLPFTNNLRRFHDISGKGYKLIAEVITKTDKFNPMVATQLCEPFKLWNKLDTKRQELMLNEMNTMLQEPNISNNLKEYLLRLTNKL

[7] = Artemis endonuclease inhibitor potency, dose response, biochemical, fluorescence intensity (AID 720701); assay type: functional;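 note: Artemis endonuclease enzyme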
Cysteine protease ATG4B = target: T5, Cysteine protease ATG4B (Homo sapiens, UniProt Q9Y4P1); assay type: functional;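 note: Fluorescence-based dose-response confirmation assay measuring inhibition of ATG4B activity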
T5 sequence (Q9Y4P1 whole entry): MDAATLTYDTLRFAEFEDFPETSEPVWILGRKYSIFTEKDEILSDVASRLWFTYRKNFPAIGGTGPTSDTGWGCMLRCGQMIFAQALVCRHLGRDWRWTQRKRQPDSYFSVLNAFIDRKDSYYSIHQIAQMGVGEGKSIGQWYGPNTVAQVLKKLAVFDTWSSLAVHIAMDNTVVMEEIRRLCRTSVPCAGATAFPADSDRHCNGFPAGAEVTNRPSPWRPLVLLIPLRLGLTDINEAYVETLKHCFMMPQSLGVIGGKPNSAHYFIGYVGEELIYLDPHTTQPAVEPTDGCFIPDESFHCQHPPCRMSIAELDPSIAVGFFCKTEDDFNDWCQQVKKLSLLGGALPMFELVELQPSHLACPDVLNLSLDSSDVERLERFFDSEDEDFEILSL

[8] = target: T6, Induced myeloid leukemia cell differentiation protein Mcl-1 (Homo sapiens, UniProt Q07820); assay type: functional
T6 sequence (Q07820 whole entry): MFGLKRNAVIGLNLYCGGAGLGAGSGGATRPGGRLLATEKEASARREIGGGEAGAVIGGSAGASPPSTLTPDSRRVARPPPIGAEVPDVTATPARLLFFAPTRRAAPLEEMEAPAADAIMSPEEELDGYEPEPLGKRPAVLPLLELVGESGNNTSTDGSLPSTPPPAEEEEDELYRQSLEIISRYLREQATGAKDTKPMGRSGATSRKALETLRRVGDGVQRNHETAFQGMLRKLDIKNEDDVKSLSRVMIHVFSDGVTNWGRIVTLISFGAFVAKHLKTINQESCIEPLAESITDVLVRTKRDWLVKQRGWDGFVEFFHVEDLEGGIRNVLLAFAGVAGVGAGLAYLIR

SUMO-activating enzyme [9] = target: T7, SUMO-activating enzyme (Homo sapiens, UniProt Q9UBT2); assay: SUMOylation inhibitor hit validation, confirmation, SUMOylation inhibitor project, biochemical, AlphaScreen (AID 2018); assay type: functional
T7 sequence (Q9UBE0 whole entry): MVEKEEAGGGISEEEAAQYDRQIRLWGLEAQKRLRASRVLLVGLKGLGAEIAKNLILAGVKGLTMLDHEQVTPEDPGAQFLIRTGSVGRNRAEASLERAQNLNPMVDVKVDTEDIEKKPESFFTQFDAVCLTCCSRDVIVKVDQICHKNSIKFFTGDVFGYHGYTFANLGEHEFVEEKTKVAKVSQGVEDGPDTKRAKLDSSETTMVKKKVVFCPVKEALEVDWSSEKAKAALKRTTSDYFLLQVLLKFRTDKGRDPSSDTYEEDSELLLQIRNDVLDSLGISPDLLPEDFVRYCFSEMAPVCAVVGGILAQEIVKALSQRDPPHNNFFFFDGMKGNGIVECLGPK
T7 sequence (Q9UBT2 whole entry): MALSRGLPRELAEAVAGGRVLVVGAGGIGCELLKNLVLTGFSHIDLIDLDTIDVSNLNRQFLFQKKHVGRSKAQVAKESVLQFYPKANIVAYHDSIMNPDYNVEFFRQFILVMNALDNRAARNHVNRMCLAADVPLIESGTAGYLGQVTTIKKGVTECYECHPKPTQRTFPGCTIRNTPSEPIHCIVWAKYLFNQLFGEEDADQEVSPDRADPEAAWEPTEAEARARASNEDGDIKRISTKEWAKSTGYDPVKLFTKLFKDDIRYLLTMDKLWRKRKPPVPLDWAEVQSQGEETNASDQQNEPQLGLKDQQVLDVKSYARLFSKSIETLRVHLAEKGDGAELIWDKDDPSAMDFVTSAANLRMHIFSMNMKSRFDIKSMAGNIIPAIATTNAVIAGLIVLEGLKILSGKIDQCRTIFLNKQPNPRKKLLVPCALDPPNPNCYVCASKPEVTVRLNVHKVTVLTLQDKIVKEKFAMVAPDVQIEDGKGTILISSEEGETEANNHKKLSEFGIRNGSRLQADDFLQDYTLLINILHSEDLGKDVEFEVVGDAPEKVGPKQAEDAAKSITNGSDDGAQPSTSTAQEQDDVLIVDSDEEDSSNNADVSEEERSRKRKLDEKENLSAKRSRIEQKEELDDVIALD

[10] = target: T6, Induced myeloid leukemia cell differentiation protein Mcl-1; assay: MCL1-BIM BH3 interaction inhibitors, dose response, biochemical, fluorescence polarization, BIM-BH3 peptide, 1536-well (AID 2217)
[11] = Counterscreen for inhibitors of Trypanosoma brucei methionyl tRNA synthetase (MetRS): Luminescence-based cell-based high throughput dose response assay to identify compounds that are cytotoxic to Jurkat human T lymphocyte cells.; assay type: functional
Large T antigen = Large T antigen (Simian virus 40, UniProt P03070); assay type: functional, Betapolyomavirus macacae;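 note: Confirmatory-stage PubChem screen for compounds that inhibit SV40 T antigen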
[12] = target: 72 kDa type IV collagenase (Homo sapiens, UniProt P08253); assay: Dose Response validation of uHTS RPN11 inhibitor hits using a MMP-2 Fluorescence assay.; assay type: functional
Chain of 72 kDa type IV collagenase (P08253 whole entry): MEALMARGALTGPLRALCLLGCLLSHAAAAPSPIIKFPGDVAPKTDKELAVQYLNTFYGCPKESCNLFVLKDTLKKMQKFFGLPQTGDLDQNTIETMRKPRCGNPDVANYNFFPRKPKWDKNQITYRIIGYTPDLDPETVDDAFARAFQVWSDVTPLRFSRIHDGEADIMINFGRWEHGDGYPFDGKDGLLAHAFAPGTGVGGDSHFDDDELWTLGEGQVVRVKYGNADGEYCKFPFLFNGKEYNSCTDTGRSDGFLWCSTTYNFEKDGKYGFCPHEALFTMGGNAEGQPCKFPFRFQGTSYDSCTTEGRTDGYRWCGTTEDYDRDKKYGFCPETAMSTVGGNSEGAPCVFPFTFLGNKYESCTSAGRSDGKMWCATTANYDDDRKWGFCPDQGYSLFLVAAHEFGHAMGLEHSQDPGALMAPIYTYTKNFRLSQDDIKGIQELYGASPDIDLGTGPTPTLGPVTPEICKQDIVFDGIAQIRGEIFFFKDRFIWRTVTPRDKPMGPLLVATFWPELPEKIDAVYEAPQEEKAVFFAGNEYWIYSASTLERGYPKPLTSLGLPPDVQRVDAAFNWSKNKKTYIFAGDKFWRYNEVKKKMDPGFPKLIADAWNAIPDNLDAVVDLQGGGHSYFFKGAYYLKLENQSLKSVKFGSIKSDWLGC

SUMO-activating enzyme [13] = target: T7, SUMO-activating enzyme; assay: inhibitors of in vitro SUMOylation cascade, primary screen, biochemical, HTRF, uHTS (AID 2006); assay type: protein-complex assay
[14] = target: T8, Neuropeptide Y receptor type 2 (Homo sapiens, UniProt P49146); assay: Fluorescence-based cell-based high-throughput dose response assay for agonists of NPY-Y2. [Related pubchem assays: 1703 (Screening assay (CNGC inhibitors).), 1359 (Screening assay (NPY-Y2 potentiators or agonists).), 1304 (Screening assay (NPY-Y1 potentiators or agonists).), 1710 (Screening assay (NPY-Y2 agonists).), 1791 (Summary AID.)]; assay type: functional
T8 sequence (P49146 whole entry): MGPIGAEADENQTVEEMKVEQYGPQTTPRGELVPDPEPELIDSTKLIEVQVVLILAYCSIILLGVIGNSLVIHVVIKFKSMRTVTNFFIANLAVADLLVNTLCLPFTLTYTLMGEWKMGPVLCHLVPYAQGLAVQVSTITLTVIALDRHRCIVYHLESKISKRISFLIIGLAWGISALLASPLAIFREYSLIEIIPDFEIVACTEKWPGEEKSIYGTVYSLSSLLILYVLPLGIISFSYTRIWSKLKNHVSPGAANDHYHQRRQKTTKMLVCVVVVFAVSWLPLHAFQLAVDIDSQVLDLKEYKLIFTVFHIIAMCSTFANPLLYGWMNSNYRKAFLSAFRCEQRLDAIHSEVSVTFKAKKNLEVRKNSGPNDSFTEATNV

[15] = target: T9, Neuropeptide Y receptor type 1 (Homo sapiens, UniProt P25929); assay: Fluorescence-based counterscreen for agonists of NPY-Y2: cell-based high-throughput dose response assay for agonists of NPY-Y1.; assay type: functional
T9 sequence (P25929 whole entry): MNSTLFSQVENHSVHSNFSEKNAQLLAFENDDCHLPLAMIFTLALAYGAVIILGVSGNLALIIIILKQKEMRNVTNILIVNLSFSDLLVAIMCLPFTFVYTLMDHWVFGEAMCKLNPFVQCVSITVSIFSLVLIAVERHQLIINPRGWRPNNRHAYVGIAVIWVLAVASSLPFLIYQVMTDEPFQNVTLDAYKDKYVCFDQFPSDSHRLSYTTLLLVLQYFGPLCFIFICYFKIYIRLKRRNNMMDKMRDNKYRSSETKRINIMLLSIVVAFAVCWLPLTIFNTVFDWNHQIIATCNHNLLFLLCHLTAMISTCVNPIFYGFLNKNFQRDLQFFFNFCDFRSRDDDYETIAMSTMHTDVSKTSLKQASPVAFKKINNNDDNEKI

HEK293 = assay: Fluorescence-based counterscreen for potentiators or agonists of NPY-Y2: cell-based high-throughput dose response assay to identify inhibitors of cyclic nucleotide gated ion channel (CNGC) activity. In this assay, the parental HEK293 cell line transfected with a cyclic-nucleotide gated ion channel (CNGC)-based cAMP sensor is used to measure inhibition of isoproterenol-induced CNGC activity by test compound.; assay type: functional; conditions: Homo sapiens;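 note: stimulus is 1 µM isoproterenol at EC100 plus PDE inhibitor Ro 20-1724 at 25 µM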

COc1ccc(/N=C(\C)c2sc3ccccc3c2O)cc1
IC50 [1]: > 55.7 µM (not active) | EC50 [2]: > 300 µM (not active) | IC50 (Insulin-degrading enzyme): > 18.7 µM (not active)

O=C(N/N=C/c1ccc(-c2ccc(S(=O)(=O)Nc3ncccn3)cc2)o1)c1cc2ccccc2cc1O
IC50 [3]: 33.3 µM (active) | CC50 (Vero): 26 µM (active) | IC50 [4]: 18.6 µM (inactive) | IC50 (Prothrombin): 75.6 µM (active) | IC50 (Genome polyprotein): 76.5 µM (active) | IC50 [5]: 17 µM (active) | IC50 (Phospholipase A2): 20.3 µM (inactive) | IC50 (Bcl-2-like protein 1): > 109 µM (not active) | IC50 [6]: 15.8 µM (inactive) | IC50 (Aminopeptidase N): 42.3 µM (active) | IC50 [7]: 11.4 µM (active) | IC50 (Cysteine protease ATG4B): 5.98 µM (active) | IC50 [8]: 1.63 µM (active) | IC50 (SUMO-activating enzyme [9]): 2.21 µM (active) | IC50 [10]: > 4.03 µM (active) | IC50 [11]: 83.3 µM (inactive) | IC50 (Large T antigen): 52.8 µM (active) | IC50 [12]: > 100 µM (inactive) | IC50 (SUMO-activating enzyme [13]): 12.4 µM (active)

O=C1C2CC=CCC2C(=O)N1c1ccc(NCCc2ccc(O)cc2)c([N+](=O)[O-])c1 (stereo not given)
EC50 [14]: > 35.4 µM (not active) | EC50 [15]: 26.5 µM (not active) | EC50 (HEK293): 15.3 µM (not active)
